Entries after “also recorded” stand apart in the source; their conditions may differ. Read-outs that look alike come from different tables or passages of the source.
Assays:
[1] = Distribution of C1 in tissues; assay type: in vivo, Wistar rats; settings: p.o. 75 mg/kg
Description: Fifteen male Wistar rats were distributed in five groups (n = 3) and rats were orally administered C1 at a single dose of 75 mg/kg. Subsequently, a group of animals was sacrificed (n = 3) at 10, 30, 90, 180, and 360 min. […] All tissues and organs were weighed on an analytical balance and immediately processed. Each tissue sample was homogenized with saline solution in a 1:3 (wt/v) ratio. The preparation process for analysis was the same as described above for plasma samples [57] (File S8).

[2] = Blood/plasma partitioning (BP ratio); assay type: in vitro ADME, rats; settings: rat whole blood, 37 °C, 4 h
Description: Appropriate amounts of C1 stock solution at 10 mg/mL were spiked into whole blood to obtain samples (prepared in triplicate) at a final concentration of 1, 5, and 10 and 20 μg/mL (in a final volume of 600 μL), to be incubated at 37 °C for 4 h. Plasma was harvested from blood samples by centrifuging at 8000 rpm for 15 min, and then the concentration of C1 was established using the RP-HPLC method and interpolating the response area into a standard curve prepared with C1 and blank plasma. The BP ratio was calculated by dividing 5 and 10 µg/mL, respectively, by the concentration found in plasma separated from blood samples. The concentration of C1 in blood cells is assumed to be equal to its unbound concentration in plasma.

[3] = Acute toxicity, up-and-down OECD method (Guideline 425); assay type: in vivo; settings: both sexes, rat, in vivo, Wistar rats, read-out: Median lethal dose (LD50)
Description: (§1) For all experiments, rats were allowed to acclimatize to the lab conditions during one week prior to undergoing assays. For the pharmacokinetic studies, animals were randomly divided into three groups (n = 6, body weight 300 ± 20 g). Eight female rats were employed in the up-and-down acute toxicity procedure. The animals were fasted for 8 h before and 4 h after drug administration but always given free access to water.
(§2) If the first animal dies, the second animal is given a lower dose. A dose progression factor of 3.2 can be used. […] The animals were monitored for 14 days post-dosing and then sacrificed. The LD50 values were calculated with AOTStatPgm.

Wistar rats = test: as above; assay type: in vivo
Description: as §1, §2

O=C(/C=C(/Br)C(=O)O)Nc1ccc(O)c(C(=O)O)c1 [Compound C1, 5-{[(2E)-3-bromo-3-carboxyprop-2-enoyl]amino}-2-hydroxybenzoic acid]
concentration at 6 h ([1]; male, Wistar, rat, heart, po, 75 mg/kg, Hearth, individual rats, read-out: Concentration (µg/mL) at 6 h, Rat 1-3): 2.4 µg/mL
concentration at 10 min ([1]; male, Wistar, rat, kidney, po, 75 mg/kg, Kidney, 10 min, n = 3, read-out: Average Concentration): 16 µg/mL
concentration at 30 min ([1]; male, Wistar, rat, kidney, po, 75 mg/kg, Kidney, 30 min, n = 3, read-out: Average Concentration): 6.9 µg/mL
concentration at 90 min ([1]; male, Wistar, rat, kidney, po, 75 mg/kg, Kidney, 90 min, n = 3, read-out: Average Concentration): 4.8 µg/mL
concentration at 3 h ([1]; male, Wistar, rat, kidney, po, 75 mg/kg, Kidney, 3 h, n = 3, read-out: Average Concentration): 4.7 µg/mL
concentration at 6 h ([1]; male, Wistar, rat, kidney, po, 75 mg/kg, Kidney, 6 h, n = 3, read-out: Average Concentration): 4.1 µg/mL
concentration at 30 min ([1]; male, Wistar, rat, kidney, po, 75 mg/kg, Kidney, individual rats, read-out: Concentration (µg/mL) at 30 minutes, Rat 1-3): 6.1 µg/mL
concentration at 90 min ([1]; male, Wistar, rat, kidney, po, 75 mg/kg, Kidney, individual rats, read-out: Concentration (µg/mL) at 90 minutes, Rat 1-3): 3.6 µg/mL
concentration at 10 min ([1]; male, Wistar, rat, liver, po, 75 mg/kg, Liver, 10 min, n = 3, read-out: Average Concentration): 4.6 µg/mL
concentration at 30 min ([1]; male, Wistar, rat, liver, po, 75 mg/kg, Liver, 30 min, n = 3, read-out: Average Concentration): 6.4 µg/mL
concentration at 90 min ([1]; male, Wistar, rat, liver, po, 75 mg/kg, Liver, 90 min, n = 3, read-out: Average Concentration): 4.4 µg/mL
concentration at 3 h ([1]; male, Wistar, rat, liver, po, 75 mg/kg, Liver, 3 h, n = 3, read-out: Average Concentration): 4.9 µg/mL
concentration at 6 h ([1]; male, Wistar, rat, liver, po, 75 mg/kg, Liver, 6 h, n = 3, read-out: Average Concentration): 4.2 µg/mL
concentration at 10 min ([1]; male, Wistar, rat, liver, po, 75 mg/kg, Liver, individual rats, read-out: Concentration (µg/mL) at 10 minutes, Rat 1-3): 4.4 µg/mL
concentration at 30 min ([1]; male, Wistar, rat, liver, po, 75 mg/kg, Liver, individual rats, read-out: Concentration (µg/mL) at 30 minutes, Rat 1-3): 5.8 µg/mL
concentration at 10 min ([1]; male, Wistar, rat, lung, po, 75 mg/kg, Lung, 10 min, n = 3, read-out: Average Concentration): 15.7 µg/mL
concentration at 30 min ([1]; male, Wistar, rat, lung, po, 75 mg/kg, Lung, 30 min, n = 3, read-out: Average Concentration): 10.7 µg/mL
concentration at 90 min ([1]; male, Wistar, rat, lung, po, 75 mg/kg, Lung, 90 min, n = 3, read-out: Average Concentration): 7.4 µg/mL
concentration at 3 h ([1]; male, Wistar, rat, lung, po, 75 mg/kg, Lung, 3 h, n = 3, read-out: Average Concentration): 7.2 µg/mL
concentration at 6 h ([1]; male, Wistar, rat, lung, po, 75 mg/kg, Lung, 6 h, n = 3, read-out: Average Concentration): 6.3 µg/mL
concentration at 10 min ([1]; male, Wistar, rat, muscle, po, 75 mg/kg, Muscle, 10 min, n = 3, read-out: Average Concentration): 4.7 µg/mL
concentration at 30 min ([1]; male, Wistar, rat, muscle, po, 75 mg/kg, Muscle, 30 min, n = 3, read-out: Average Concentration): 3.8 µg/mL
concentration at 90 min ([1]; male, Wistar, rat, muscle, po, 75 mg/kg, Muscle, 90 min, n = 3, read-out: Average Concentration): 3.3 µg/mL
concentration at 3 h ([1]; male, Wistar, rat, muscle, po, 75 mg/kg, Muscle, 3 h, n = 3, read-out: Average Concentration): 2.7 µg/mL
concentration at 6 h ([1]; male, Wistar, rat, muscle, po, 75 mg/kg, Muscle, 6 h, n = 3, read-out: Average Concentration): 2.5 µg/mL
concentration at 10 min ([1]; male, Wistar, rat, muscle, po, 75 mg/kg, Muscle, individual rats, read-out: Concentration (µg/mL) at 10 minutes, Rat 1-3): 4.8 µg/mL
concentration at 30 min ([1]; male, Wistar, rat, muscle, po, 75 mg/kg, Muscle, individual rats, read-out: Concentration (µg/mL) at 30 minutes, Rat 1-3): 3.4 µg/mL
concentration at 90 min ([1]; male, Wistar, rat, muscle, po, 75 mg/kg, Muscle, individual rats, read-out: Concentration (µg/mL) at 90 minutes, Rat 1-3): 3.2 µg/mL
concentration at 3 h ([1]; male, Wistar, rat, muscle, po, 75 mg/kg, Muscle, individual rats, read-out: Concentration (µg/mL) at 3 h, Rat 1-3): 3 µg/mL
Tmax ([1]; male, Wistar, rat, po, rats, read-out: time of maximum concentration in tissues and organs (converted)): 10 min
concentration at 10 min ([1]; male, Wistar, rat, small intestine, po, 75 mg/kg, Small intestine, 10 min, n = 3, read-out: Average Concentration): 31.6 µg/mL
concentration at 30 min ([1]; male, Wistar, rat, small intestine, po, 75 mg/kg, Small intestine, 30 min, n = 3, read-out: Average Concentration): 15.7 µg/mL
concentration at 90 min ([1]; male, Wistar, rat, small intestine, po, 75 mg/kg, Small intestine, 90 min, n = 3, read-out: Average Concentration): 15.8 µg/mL
concentration at 3 h ([1]; male, Wistar, rat, small intestine, po, 75 mg/kg, Small intestine, 3 h, n = 3, read-out: Average Concentration): 14.8 µg/mL
concentration at 6 h ([1]; male, Wistar, rat, small intestine, po, 75 mg/kg, Small intestine, 6 h, n = 3, read-out: Average Concentration): 10.1 µg/mL
concentration at 90 min ([1]; male, Wistar, rat, small intestine, po, 75 mg/kg, Small intestine, individual rats, read-out: Concentration (µg/mL) at 90 minutes, Rat 1-3): 15.1 µg/mL
concentration at 3 h ([1]; male, Wistar, rat, small intestine, po, 75 mg/kg, Small intestine, individual rats, read-out: Concentration (µg/mL) at 3 h, Rat 1-3): 14.2 µg/mL
concentration at 6 h ([1]; male, Wistar, rat, small intestine, po, 75 mg/kg, Small intestine, individual rats, read-out: Concentration (µg/mL) at 6 h, Rat 1-3): 9.1 µg/mL
concentration at 10 min ([1]; male, Wistar, rat, spleen, po, 75 mg/kg, Spleen, 10 min, n = 3, read-out: Average Concentration): 31.8 µg/mL
concentration at 30 min ([1]; male, Wistar, rat, spleen, po, 75 mg/kg, Spleen, 30 min, n = 3, read-out: Average Concentration): 17.2 µg/mL
concentration at 90 min ([1]; male, Wistar, rat, spleen, po, 75 mg/kg, Spleen, 90 min, n = 3, read-out: Average Concentration): 11.7 µg/mL
concentration at 3 h ([1]; male, Wistar, rat, spleen, po, 75 mg/kg, Spleen, 3 h, n = 3, read-out: Average Concentration): 8.7 µg/mL
concentration at 6 h ([1]; male, Wistar, rat, spleen, po, 75 mg/kg, Spleen, 6 h, n = 3, read-out: Average Concentration): 7.8 µg/mL
concentration at 10 min ([1]; male, Wistar, rat, spleen, po, 75 mg/kg, Spleen, individual rats, read-out: Concentration (µg/mL) at 10 minutes, Rat 1-3): 30 µg/mL
concentration at 30 min ([1]; male, Wistar, rat, spleen, po, 75 mg/kg, Spleen, individual rats, read-out: Concentration (µg/mL) at 30 minutes, Rat 1-3): 21 µg/mL
concentration at 10 min ([1]; male, Wistar, rat, stomach, po, 75 mg/kg, Stomach, 10 min, n = 3, read-out: Average Concentration): 18.3 µg/mL
concentration at 30 min ([1]; male, Wistar, rat, stomach, po, 75 mg/kg, Stomach, 30 min, n = 3, read-out: Average Concentration): 10.2 µg/mL
concentration at 90 min ([1]; male, Wistar, rat, stomach, po, 75 mg/kg, Stomach, 90 min, n = 3, read-out: Average Concentration): 7.9 µg/mL
concentration at 3 h ([1]; male, Wistar, rat, stomach, po, 75 mg/kg, Stomach, 3 h, n = 3, read-out: Average Concentration): 6.4 µg/mL
concentration at 6 h ([1]; male, Wistar, rat, stomach, po, 75 mg/kg, Stomach, 6 h, n = 3, read-out: Average Concentration): 4.7 µg/mL
concentration at 10 min ([1]; male, Wistar, rat, testis, po, 75 mg/kg, Testis, 10 min, n = 3, read-out: Average Concentration): 9.9 µg/mL
concentration at 30 min ([1]; male, Wistar, rat, testis, po, 75 mg/kg, Testis, 30 min, n = 3, read-out: Average Concentration): 3.8 µg/mL
concentration at 90 min ([1]; male, Wistar, rat, testis, po, 75 mg/kg, Testis, 90 min, n = 3, read-out: Average Concentration): 4 µg/mL
concentration at 3 h ([1]; male, Wistar, rat, testis, po, 75 mg/kg, Testis, 3 h, n = 3, read-out: Average Concentration): 3 µg/mL
concentration at 6 h ([1]; male, Wistar, rat, testis, po, 75 mg/kg, Testis, 6 h, n = 3, read-out: Average Concentration): 3.1 µg/mL
concentration at 30 min ([1]; male, Wistar, rat, testis, po, 75 mg/kg, Testis, individual rats, read-out: Concentration (µg/mL) at 30 minutes, Rat 1-3): 4 µg/mL
concentration at 3 h ([1]; male, Wistar, rat, testis, po, 75 mg/kg, Testis, individual rats, read-out: Concentration (µg/mL) at 3 h, Rat 1-3): 3.1 µg/mL
concentration at 6 h ([1]; male, Wistar, rat, testis, po, 75 mg/kg, Testis, individual rats, read-out: Concentration (µg/mL) at 6 h, Rat 1-3): 2.1 µg/mL
crossing of blood-brain barrier and hemato-testicular barrier ([1]; rats, 75 mg/kg): able to cross the blood-brain barrier and hemato-testicular barrier; also recorded: crossed the hemato-encephalic barrier
BP Ratio ± SD ([2]; 5 µg/mL): 0.54 ± 0.02
BP Ratio ± SD ([2]; 10 µg/mL): 0.40 ± 0.01
LD50 at 14 days ([3]; ip): > 1100 mg/kg
LD50 at 14 days ([3]; po): > 2000 mg/kg
GHS category (Wistar rats; i.p. route): 4
macroscopic changes at necropsy (Wistar rats; liver, small intestine, colon, heart, spleen, stomach, kidneys): no macroscopic changes were observed; also recorded: non-macroscopic changes
GHS category (Wistar rats; p.o. route): 5
signs of toxicity (Wistar rats; p.o. route, 14 days): did not show any signs of apparent toxicity

Source: PMC8617944, “Preclinical Pharmacokinetics and Acute Toxicity in Rats of 5-{[(2E)-3-Bromo-3-carboxyprop-2-enoyl]amino}-2-hydroxybenzoic Acid: A Novel 5-Aminosalicylic Acid Derivative with Potent Anti-Inflammatory Activity” (Molecules, 2021)
